Consider two compounds from US20200170256A1, “Amonia Based Piscicide” (priority 2018, published 2020).

The structures appear in SMILES notation.

One experiment concerns mitochondrial complex I. The following applies: 2011 NIH study; cited from earlier work.
The subject of another experiment is fathead minnows. Description: fathead minnows exposed to the piscicide in 100-gallon laboratory tanks (effective amount of ammonium chloride). The format is in vivo. As to the method: During each replicate trial, ten fathead minnows were exposed to the pisticide over a four hour period in 100-gallon laboratory tanks at 20° C.

With `C=C(C)[C@H]1Cc2c(ccc3c2O[C@@H]2COc4cc(OC)c(OC)cc4[C@@H]2C3=O)O1` [Rotenone], the “role in inhibiting mitochondrial complex I among 31 tested piscicides” value in the experiment on mitochondrial complex I is reported as “greatest role in inhibiting mitochondrial complex I”.

In the case of `Cl.N` [ammonium chloride], in the experiment on fathead minnows, the “effective amount of ammonium chloride alone (approximate same effect)” value is 0.6-0.8 grams per gallon.
